*1 amine or outer side, *2 acyl side, *3 side chain or, on linkers, in order; H or OH if unused. Where a SMILES comes first, the peptide text is derived from it. Bridges are numbered along the chain shown (N, C = ends). Roman numbers before positions name the chains, in order. [ ]: non-standard residue; d: D form. hNle(7-SH) = O=C([C@H](CCCCCS[*:3])N[*:1])[*:2]
Legend:
[1] = system: human wild-type p21 promoter; test: p21 promoter-inducing activity (luciferase) in MFLL-9 cells; type: cell-based
Method: The HDAC inhibition activity in vivo was measured using p21 promoter-inducing activity as an index, as shown below. The MFLL-9 cells employed for the experiments stably maintained fusion genes of human wild-type p21 promoter and luciferase (Dr. B. Vogelstaein). Using phenol red-free DMEM medium comprising 10% FBS, cultivation was carried out in a steam-saturated incubator at 37° C. with 5% carbon dioxide. The MFLL-9 cells were plated at a density of 85,000 cells/well on a 96-well microtiter plate, each in 99 μl of the above-mentioned medium. These were then cultivated for six hours. One μl of test compound solution was added to each well, which was then cultured for another 18 hours.
The intensity of luminescence caused by the product of the enzyme reaction for intracellular luciferase expression was measured using Luc Lite (Packard BioScience Company). A group in which test compounds were not added was used as a negative control group. The values measured for this group were used as a standard. The activities for each concentration of added test compound were expressed relative to the above-mentioned standard value, 1.

[2] = biological target: T1, mouse HDAC6 (Mus musculus, UniProt Q9Z2V5); test: In vitro HDAC inhibition activity, [3H]-acetylated histone substrate, HDAC6; type: biochemical; conditions: Table 2; homodimer
T1 construct: HA; made in house; host or cells: 293T cells (transient transfection, anti-HA immunoprecipitation, HA peptide elution)
T1 sequence (Q9Z2V5 1-1149): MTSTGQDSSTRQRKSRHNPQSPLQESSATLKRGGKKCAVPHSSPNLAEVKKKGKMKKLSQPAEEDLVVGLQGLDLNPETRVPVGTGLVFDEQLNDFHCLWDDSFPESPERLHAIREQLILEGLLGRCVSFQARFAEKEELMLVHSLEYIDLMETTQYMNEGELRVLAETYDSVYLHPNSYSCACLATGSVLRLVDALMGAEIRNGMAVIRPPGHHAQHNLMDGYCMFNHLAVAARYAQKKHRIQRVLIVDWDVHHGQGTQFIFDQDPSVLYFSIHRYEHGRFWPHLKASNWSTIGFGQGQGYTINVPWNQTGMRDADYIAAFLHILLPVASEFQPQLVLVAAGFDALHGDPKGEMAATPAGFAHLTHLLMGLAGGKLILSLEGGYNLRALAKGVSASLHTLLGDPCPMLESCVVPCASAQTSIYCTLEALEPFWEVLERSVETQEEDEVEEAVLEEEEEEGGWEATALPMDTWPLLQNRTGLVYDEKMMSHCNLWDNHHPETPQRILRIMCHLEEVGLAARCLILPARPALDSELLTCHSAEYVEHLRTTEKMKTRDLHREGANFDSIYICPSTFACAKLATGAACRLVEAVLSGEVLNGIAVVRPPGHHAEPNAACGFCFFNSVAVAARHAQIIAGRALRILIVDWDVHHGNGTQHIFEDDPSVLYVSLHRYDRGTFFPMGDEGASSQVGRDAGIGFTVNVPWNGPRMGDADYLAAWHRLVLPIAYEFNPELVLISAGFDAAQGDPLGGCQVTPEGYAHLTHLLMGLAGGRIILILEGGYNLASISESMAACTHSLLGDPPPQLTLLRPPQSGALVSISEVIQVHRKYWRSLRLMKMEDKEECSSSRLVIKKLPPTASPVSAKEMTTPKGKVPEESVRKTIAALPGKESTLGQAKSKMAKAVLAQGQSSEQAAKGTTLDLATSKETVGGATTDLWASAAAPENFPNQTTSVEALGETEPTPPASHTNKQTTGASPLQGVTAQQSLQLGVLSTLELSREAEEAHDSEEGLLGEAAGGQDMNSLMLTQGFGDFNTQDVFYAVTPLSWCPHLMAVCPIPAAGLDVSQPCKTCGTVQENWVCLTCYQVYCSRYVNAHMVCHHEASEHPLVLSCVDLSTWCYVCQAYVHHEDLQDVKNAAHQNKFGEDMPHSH
Method: (§1) To measure HDAC inhibition activity, an HDAC solution was prepared as described below. 1×10^7 of 293T cells were plated on to a 100-mm dish and, after 24 hours, transfected with vectors (1 μg) expressing human HDAC1 and HDAC4 or mouse HDAC6, using LipofectAmine 2000 reagent (Life Technologies, Inc. Gaithersburg, Md.). […] The vectors were introduced for five hours in OPTI-MEM. The medium was then replaced with Dulbecco's modified Eagle's medium (DMEM), and incubated for 19 hours. The cells were washed with PBS, suspended in lysis buffer (50 mM Tris-HCl (pH7.5), 120 mM NaCl, 5 mM EDTA, and 0.5% Nonidet P-40), and sonicated. The supernatant was collected by centrifugation and nonspecific protein was removed using Protein A/G plus agarose beads (Santa Cruz Biotechnologies, Inc.). Anti-FLAG M2 antibodies (Sigma-Aldrich, Inc.) were added to the supernatant of cells expressing HDAC1 or HDAC4. Anti-HA antibodies (clone 3F10, Roche Molecular Biochemicals) were added to the supernatant of cells expressing HDAC6. Reaction in the respective mixtures was carried out at 4° C. for one hour. The resulting reaction mixtures were independently mixed with agarose beads and further reacted at 4° C. for one hour. The agarose beads were washed three times with lysis buffer and then washed once with HD buffer (20 mM Tris-HCl (pH8.0), 150 mM NaCl, 10% glycerol, and a complete protease inhibitor cocktail (Boehringer Mannheim, Germany)). […] The HDAC reaction solution was used for determining HDAC inhibition activity as shown below.
(§2) In vitro HDAC inhibition activity was evaluated as follows: A test compound was dissolved in DMSO and adjusted to 10 mM. This was used as an inhibitor stock solution. […] These reactions were stopped by adding 10 μl HCl. The [^3H] acetic acid excised by the enzyme reaction was extracted with ethyl acetate and subjected to radioactive dose measurement. As a negative control, the same procedure was carried out in which no inhibitor was added to the reaction system. The inhibition activity was expressed as a 50% inhibition concentration (“IC50 (nM)”) of the HDAC activity in the negative control (Tables 1 to 4).

[3] = Stability in serum (FCS), read out by p21 promoter inducing activity; type: in vitro ADME
Method: The stability of SCOP 152, SCOP 304, and SCOP 402 in serum was evaluated by the method shown below: 1 μl of 10 mM SCOP 152, SCOP 304, and SCOP 402 was added to 99 μl FCS, and incubated at 37° C. Each hour, NaCl in a sufficient amount for saturation and 1 ml of ethyl acetate were added to each mixture. After extraction, from 800 μl of the ethyl acetate phase, the ethyl acetate was distilled off, and then 100 μl of DMSO was added to the residue. The resulting solution was further diluted ten times with DMSO and used to measure p21 promoter inducing activity. Activity at incubation time zero was taken as 100%, and activities were compared (FIG. 7).

[4] = biological target: T2, human HDAC1 (Homo sapiens, UniProt Q13547); test: In vitro HDAC inhibition activity, [3H]-acetylated histone substrate, HDAC1; type: biochemical; conditions: Table 2; homodimer
T2 construct: FLAG; made in house; host or cells: 293T cells (transient transfection, anti-FLAG immunoprecipitation, FLAG peptide elution)
Method: as §1, §2

[5] = in vitro; conditions: human, Cancer-Cell-Selective Cytotoxicity
Method: (§3) Human normal lung cells (TIG-3) and human uterine cancer cells (HeLa) were used to test SCOP cytotoxicity. These TIG-3 and HeLa cells were cultured in a DMEM medium comprising 10% FBS at 37° C. in the presence of 5% carbon dioxide in a steam-saturated incubator. The TIG-3 and HeLa cells were plated in 100 μl/well of the above-described medium on a 96-well microtiter plate, at a density of 30,000 cells/well and 10,000 cells/well respectively. This was then cultured for 18 hours. Test compound solution diluted with medium was added to each well and culture was continued for another 48 hours.
(§4) 30 μl of supernatant from each well was transferred to another 96-well microtiter plate (A), and the remaining supernatant was discarded. 100 μl of 0.5% Triton-X/PBS was added to each well to lyse the cells, and 30 μl was then transferred to each respective well of another 96-well microtiter plate (B). 30 μl of LDH-Cytotoxic Test (Wako) substrate solution was added to each well of these 96-well microtiter plates A and B, causing a color reaction. Once the color reaction was sufficiently progressed, it was stopped by adding 60 μl of a quenching solution. Color intensity was measured at OD560 nm using a microplate reader (Softmax). [A/(A+B)] was calculated as the free-LDH ratio. […] The higher the activity value for cancer-cell-selective cell damage (LD50 for normal cells/LD50 for cancer cells), the more that cancer-cell-selective apoptosis was induced.

[6] = system: human uterine cancer cells (HeLa); test: in vitro
Method: as §3, §4

[7] = biological target: T3, human HDAC4 (Homo sapiens, UniProt P56524); test: In vitro HDAC inhibition activity, [3H]-acetylated histone substrate, HDAC4; type: biochemical; conditions: Table 2; homodimer
T3 construct: FLAG; made in house; host or cells: 293T cells (transient transfection, anti-FLAG immunoprecipitation, FLAG peptide elution)
Method: as §1, §2

[8] = system: Human normal lung cells (TIG-3); test: Cytotoxicity test (free-LDH ratio), TIG-3; type: cell-based; conditions: 48 hours; free-LDH ratio 50%; without DTT
Method: This was then cultured for 18 hours.

T3 sequence (O15379 whole entry partner): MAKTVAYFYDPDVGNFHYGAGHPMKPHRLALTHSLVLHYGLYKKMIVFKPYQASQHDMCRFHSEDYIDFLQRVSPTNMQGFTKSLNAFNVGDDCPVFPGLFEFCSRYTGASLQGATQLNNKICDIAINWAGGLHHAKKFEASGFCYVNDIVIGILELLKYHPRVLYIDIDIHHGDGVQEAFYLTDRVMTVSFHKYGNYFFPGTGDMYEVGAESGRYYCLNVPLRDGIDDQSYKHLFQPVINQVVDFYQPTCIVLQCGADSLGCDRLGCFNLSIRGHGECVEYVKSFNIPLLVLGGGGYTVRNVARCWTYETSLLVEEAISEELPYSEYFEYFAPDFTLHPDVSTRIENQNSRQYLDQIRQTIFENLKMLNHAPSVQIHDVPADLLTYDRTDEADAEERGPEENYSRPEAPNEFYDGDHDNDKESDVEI
T3 sequence (P56524 whole entry): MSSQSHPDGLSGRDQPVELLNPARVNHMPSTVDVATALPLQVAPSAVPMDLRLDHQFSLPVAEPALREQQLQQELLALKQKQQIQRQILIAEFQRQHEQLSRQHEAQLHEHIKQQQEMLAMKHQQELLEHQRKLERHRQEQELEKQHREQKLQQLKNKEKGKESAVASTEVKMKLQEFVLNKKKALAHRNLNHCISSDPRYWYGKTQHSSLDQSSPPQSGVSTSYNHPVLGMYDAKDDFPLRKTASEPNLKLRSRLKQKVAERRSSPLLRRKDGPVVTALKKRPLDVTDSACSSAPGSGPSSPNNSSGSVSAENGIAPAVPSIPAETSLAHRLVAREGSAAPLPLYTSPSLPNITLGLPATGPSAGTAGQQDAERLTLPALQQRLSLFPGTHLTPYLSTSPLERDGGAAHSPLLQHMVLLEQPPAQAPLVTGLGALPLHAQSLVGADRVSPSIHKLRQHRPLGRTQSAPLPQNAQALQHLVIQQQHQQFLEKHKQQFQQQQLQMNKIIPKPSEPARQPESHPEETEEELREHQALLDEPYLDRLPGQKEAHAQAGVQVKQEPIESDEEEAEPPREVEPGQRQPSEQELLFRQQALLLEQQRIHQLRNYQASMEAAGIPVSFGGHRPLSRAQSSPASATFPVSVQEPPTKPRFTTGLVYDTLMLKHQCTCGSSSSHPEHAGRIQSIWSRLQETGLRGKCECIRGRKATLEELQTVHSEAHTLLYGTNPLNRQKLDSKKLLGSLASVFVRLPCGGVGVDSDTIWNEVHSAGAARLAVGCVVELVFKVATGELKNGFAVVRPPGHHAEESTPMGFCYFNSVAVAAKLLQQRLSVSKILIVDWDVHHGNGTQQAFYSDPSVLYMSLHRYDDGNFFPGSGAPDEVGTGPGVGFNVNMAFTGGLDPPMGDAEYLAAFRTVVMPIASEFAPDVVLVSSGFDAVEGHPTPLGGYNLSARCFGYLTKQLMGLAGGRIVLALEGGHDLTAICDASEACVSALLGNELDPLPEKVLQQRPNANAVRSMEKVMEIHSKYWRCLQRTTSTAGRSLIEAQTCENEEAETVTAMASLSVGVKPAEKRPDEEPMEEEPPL
T2 sequence (Q13547 whole entry): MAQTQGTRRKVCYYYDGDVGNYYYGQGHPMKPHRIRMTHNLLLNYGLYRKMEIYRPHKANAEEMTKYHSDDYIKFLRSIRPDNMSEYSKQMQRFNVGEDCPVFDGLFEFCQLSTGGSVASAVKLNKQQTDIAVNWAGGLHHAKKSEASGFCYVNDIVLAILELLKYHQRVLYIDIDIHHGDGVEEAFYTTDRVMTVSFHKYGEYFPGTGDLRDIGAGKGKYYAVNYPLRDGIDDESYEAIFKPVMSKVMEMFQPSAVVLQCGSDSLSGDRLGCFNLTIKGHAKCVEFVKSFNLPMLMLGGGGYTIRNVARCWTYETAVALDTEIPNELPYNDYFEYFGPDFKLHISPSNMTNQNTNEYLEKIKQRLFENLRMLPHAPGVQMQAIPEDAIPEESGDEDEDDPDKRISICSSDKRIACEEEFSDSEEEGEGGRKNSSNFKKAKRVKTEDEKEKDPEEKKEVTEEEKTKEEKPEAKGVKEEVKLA

| Structure (SMILES) | EC50 ([1]; Table 2, homodimer) [nM] | IC50 [2] [nM] | Retention of activity in serum [3] | IC50 [4] [nM] | selectivity ratio at 48 h [5] | Cancer-Cell-Selective Cytotoxicity ([6]; human, 48 h) | IC50 [7] [nM] | EC50 ([1]; Table 4, positive control) [nM] | LD50 (nM) TIG-3 [8] [nM] | LD50 (nM) HeLa ([6]; 48 hours, free-LDH ratio 50%, without DTT) [nM] |
| --- | --- | --- | --- | --- | --- | --- | --- | --- | --- | --- |
| CC[C@H](C)[C@@H]1NC(=O)[C@@H](Cc2ccc(OC)cc2)NC(=O)[C@H](CCCCCSSCCCCC[C@@H]2NC(=O)[C@H]3CCCN3C(=O)[C@H]([C@@H](C)CC)NC(=O)[C@@H](Cc3ccc(OC)cc3)NC2=O)NC(=O)[C@H]2CCCN2C1=O [SCOP 304, cyclo(-L-Am7(-)-D-Tyr(Me)-L-Ile-D-Pro-)] (I: cyclo([hNle(7-SH)][dY](Me)I[dP]) / II: cyclo([hNle(7-SH)][dY](Me)I[dP]); disulfide I:1-II:1) | 341 | > 500000 | stably retain activity in serum for longer than SCOP 152 | 142 | 25.2 | 23.0 | 145 |  |  |  |
| CC(/C=C/C(=O)NO)=C\[C@@H](C)C(=O)c1ccc(N(C)C)cc1 [TSA, Tricostatin A, reference compound] |  |  |  |  |  |  |  | 445 | 1580 | 41.4 |

— patent US7488712B2, “Histone deacetylase inhibitors and methods for producing the same” (Kyushu Institute of Technology, priority 2002, dated 2009)
